# Laboratory results taken from publication PMC7824787, “Design, Synthesis and In Vitro Investigation of Novel Basic Celastrol Carboxamides as Bio-Inspired Leishmanicidal Agents Endowed with Inhibitory Activity against Leishmania Hsp90” (Biomolecules, 2021).
# Like-named read-outs stand apart in the source and are kept apart here.
# How the values were obtained:
# [1] = system: L. infantum promastigotes; assay: Antileishmanial activity on L. infantum promastigotes (MTT); format: cell-based; conditions: Leishmania infantum, 72 h, 23 °C, MTT, read-out: Leishmania Promastigotes IC50, L. infantum
# Description: Promastigote stage of L. infantum (MHOM/TN/80/IPT1, kindly provided by Dr. M. Gramiccia and Dr. T. Di Muccio, ISS, Roma) and L. tropica (MHOM/SY/2012/ISS3130) were cultured in RPMI 1640 medium (EuroClone) supplemented with 15% heat-inactivated fetal calf serum (EuroClone, Milan, Italy), 20 mM HEPES, and 2 mM L-glutamine at 23 °C. The MTT (3-[4.5-dimethylthiazol-2-yl]-2.5-diphenyltetrazolium bromide) method was used to estimate the 50% inhibitory concentration (IC50), with some modifications. Compounds were dissolved in DMSO and then diluted with medium to achieve the required concentrations. Test compounds were placed in 96 wells round bottom microplates and seven serial dilutions made. Amphotericin B was used as the reference antileishmanial drug. Parasites were diluted in complete medium to 5 × 10^6 parasites/mL and 100 μL of the suspension was seeded into the plates and incubated at 23 °C for 72 h. Then 20 μL of MTT solution (5 mg/mL) was added into each well, after 3 h the plates were centrifuged, the supernatants discarded and the resulting pellets dissolved in 100 μL of lysing buffer consisting of 20% (w/v) of a solution of SDS (Sigma), 40% of N,N-dimethylformamide (Merck) in H2O. The absorbance of the obtained solutions was measured at a wavelength of 550 nm with a reference at 650 nm with a microplate spectrophotometer (Synergy 4-Biotek, Milan, Italy) and analyzed with the Gen5® software for data processing.
# The results are expressed as IC50, the dose of compound that is necessary to inhibit cell growth by 50%; each IC50 value is the mean ± standard deviation of at least three separate experiments performed in duplicate.
# [2] = system: L. infantum promastigotes; assay: Morphological differentiation of Leishmania promastigotes; format: cell-based, Leishmania infantum; conditions: 50 ng/mL, 23 °C, 48 h (Figure 6)
# Description: L. infantum promastigotes were diluted in complete medium to 4 × 10^7 parasites/mL and 250 µL of the suspension were seeded into the 24 wells plates and incubated at 23 °C in the presence of geldanamycin, CE or compound 2 at the final concentration of 50 ng/mL. Cultures without drugs incubated at 23 °C or at 37 °C were used as negative and positive control, respectively. After 24 or 48 h of incubation, parasite morphology was evaluated by optical microscopy at 100× (Eclipse Ti Series, Nikon, Minato, Tokyo, Japan) on Giemsa stained smears (a mixture of eosin, methylene blue and Azure-B diluted 1:10). The percent of round promastigotes in treated and non-treated cells was determined. Images were taken at the same magnification by using a digital camera (Nikon Digital Sight). About 500 promastigotes were counted in 4 random fields.
# The compounds were incubated (23 °C, physiological pH) with L. infantum promastigotes at a sub-IC50 concentration of 50 ng/mL. […] After 24 h and 48 h the presence of round, amastigote-like cells, was monitored (Figure 6). A negative and positive control experiment (NC and PC, Figure 6a,b) were also conducted growing the promastigotes at 23 °C and 37 °C, respectively.
# [3] = target: LbHsp90 (Leishmania braziliensis, UniProt A4HL70); assay: LbHsp90 ATPase kinetics (NADH-coupled enzymatic cascade); format: biochemical
# Chain of LbHsp90 (A4HL70 entry or part of it): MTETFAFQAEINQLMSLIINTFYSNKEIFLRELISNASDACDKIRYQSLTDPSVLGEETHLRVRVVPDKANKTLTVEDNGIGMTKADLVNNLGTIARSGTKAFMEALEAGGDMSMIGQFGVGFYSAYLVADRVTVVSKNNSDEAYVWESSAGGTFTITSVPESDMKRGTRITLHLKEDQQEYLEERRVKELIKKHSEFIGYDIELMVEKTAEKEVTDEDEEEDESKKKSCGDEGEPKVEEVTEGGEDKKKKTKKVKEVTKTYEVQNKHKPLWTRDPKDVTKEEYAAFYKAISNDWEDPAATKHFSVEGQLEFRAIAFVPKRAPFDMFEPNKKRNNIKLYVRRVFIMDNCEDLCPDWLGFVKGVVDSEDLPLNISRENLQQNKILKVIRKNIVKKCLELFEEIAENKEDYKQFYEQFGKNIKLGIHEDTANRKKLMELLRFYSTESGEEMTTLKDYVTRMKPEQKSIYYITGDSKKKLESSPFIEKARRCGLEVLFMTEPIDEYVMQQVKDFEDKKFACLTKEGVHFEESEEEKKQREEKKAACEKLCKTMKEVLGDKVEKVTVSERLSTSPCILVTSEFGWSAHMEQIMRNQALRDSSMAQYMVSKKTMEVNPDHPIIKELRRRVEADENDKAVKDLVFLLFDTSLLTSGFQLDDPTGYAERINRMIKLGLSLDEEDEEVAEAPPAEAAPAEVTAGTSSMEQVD
# Description: The reaction was initiated by the addition of ATP (1 mM) and absorbance changes at 346 nm were monitored for 30 min at 30 °C.
# Native LbHsp90 kinetics was measured as described but in the absence of DMSO. Two control experiments were run as follows: • (1) Efficiency of the enzymatic cascade by the used compounds: HEPES buffer (20 mM, pH 7.5) containing KCl (100 mM), MgCl2 (1 mM), ADP (1 mM), NADH (0.18 mM), L-lactate dehydrogenase (4 U mL^−1), phosphoenolpyruvate (1 mM), pyruvate kinase (2.5 U mL^−1); • (2) Interference of the tested compound(s) with the enzymatic cascade: HEPES buffer (20 mM, pH 7.5) containing KCl (100 mM), MgCl2 (1 mM), ADP (1 mM), NADH (0.18 mM), L-lactate dehydrogenase (4 U mL^−1), phosphoenolpyruvate (1 mM), pyruvate kinase (2.5 U mL^−1) and 50 μM compound.
# Accordingly, an in vitro assay developed for the evaluation of non-competitive allosteric modulators, which exploits ATPase kinetics data, was used. Briefly, the decrease in absorbance deriving from the continuous oxidation of NADH to NAD^+ produced by a multi-enzymatic cascade triggered by LbHp90-catalyzed ATP hydrolysis is followed spectrophotometrically over the course of 15 min (for details see Appendix B). All the experiments were normalized using the native ATPase activity of LbHsp90 measured in the presence of DMSO, the co-solvent selected for compounds solubilization.
# Figure A1 Enzymatic cascade reactions to spectroscopically evaluate L. Hsp90 ATPase kinetics. The ADP produced by ATP hydrolysis during the chaperone cycle reacts with PEP (phosphoenolpyruvate) to form pyruvate in a reaction catalyzed by the enzyme pyruvate kinase (PK), whereby ATP is regenerated. Pyruvate then continues the cascade process and is reduced to lactic acid by action of lactate dehydrogenase (LDH), whereby NADH is oxidized to NAD^+.
# LbHsp90 inhibition (%) = (1 − k/knative) * 100 k = ΔAbs/min = extrapolated apparent kinetic constant (Abs/min)
compound,measurement,setting,value
"COC1=C2C[C@@H](C)C[C@H](OC)[C@H](O)[C@@H](C)/C=C(\C)[C@H](OC(N)=O)[C@@H](OC)/C=C\C=C(/C)C(=O)NC(=CC1=O)C2=O [GA, geldanamycin]",IC50,[1],140 ± 40 nM
same,round amastigote-like cells (morphological differentiation),[2],~40%
same,inhibition at 10 µM,"[3]; GA dose-response, 10 μM",0.1 ± 0.02%
same,inhibition at 15 µM,"[3]; GA dose-response, 15 μM",0.2 ± 0.05%
same,inhibition at 20 µM,"[3]; GA dose-response, 20 μM",0.3 ± 0.08%
same,inhibition at 50 µM,"[3]; GA dose-response, 50 μM, read-out: LbHsp90 Inhibition (%)",0.7 ± 0.04%
same,inhibition at 100 µM,"[3]; GA dose-response, 100 μM",6.5 ± 0.9%
same,inhibition at 200 µM,"[3]; GA dose-response, 200 μM",30.7 ± 1.2%
same,inhibition at 400 µM,"[3]; GA dose-response, 400 μM",52.3 ± 0.8%
same,inhibition at 600 µM,"[3]; GA dose-response, 600 μM",76.9 ± 3%
same,inhibition at 800 µM,"[3]; GA dose-response, 800 μM",90.5 ± 2.5%
same,inhibition at 1000 µM,"[3]; GA dose-response, 1000 μM (1 mM), 1 mM ATP",99 ± 0.9%
same,inhibition at 1200 µM,"[3]; GA dose-response, 1200 μM",> 99%
same,inhibition at 50 µM,"[3]; read-out: LbHsp90 Inhibition (%), compound 50 μM, 3.5 μM LbHsp90, 1 mM ATP",< 0.05%
